Legend:
human NR1/NR2B = human NR1/NR2B (Homo sapiens (Human), UniProt Q05586+Q13224); test: NR2B antagonist activity, Fluo-4 calcium influx assay in HEK293 cells; type: cell-based; details: hNR2B IC50, HEK293 cells expressing NR1/NR2B; glutamate 100 μM, glycine 50 μM
Description: (§1) Activation of the NR2A or NR2B subtype of NMDA receptor with glutamate as an agonist and glycine co-agonist on these cells results in calcium influx, which can be monitored with fluorescent indicator Fluo-4.
(§2) For experiments, the cells were seeded onto poly-D-lysine-coated 96-well black plates with clear bottom (Corning) at a density of ˜50,000 cells/well. After overnight culture, the growth medium was removed from the wells and the cells were incubated at 37° C. for 60 min in Hanks buffer containing 4 μM fluo-4-AM (Invitrogen) and 0.1% bovine serum albumin (BSA). After dye-loading, the cells were washed three times with Hanks buffer and incubated for 10 min at room temperature with various concentrations of test compounds prepared in Hanks buffer with 0.1% BSA. The cell plates were placed onto FDSS μCell fluorescence reader (Hamamatsu). After 20 sec reading of background fluorescence, agonist glutamate at final 100 μM and co-agonist glycine at final 50 μM were added to the cells to activate the receptor, and the resulting fluorescence changes were recorded and quantified. Based on the changes in fluorescence intensity, the pharmacological effect of test compounds were analyzed and the IC50 values derived from a non-linear least squares fitting of the concentration-dependent response to a standard logistic equation using Prism (Graphpad, Inc): Amplitude=Max Amplitude/(1+([…])^n).

human NR1/NR2A = human NR1/NR2A (Homo sapiens (Human), UniProt Q05586+Q12879); test: NR2A antagonist activity, Fluo-4 calcium influx assay in HEK293 cells; type: cell-based
Description: as §1, §2

hERG channel = hERG channel (Homo sapiens (Human), UniProt Q12809)
mice = test: Forced swim test (FST); type: in vivo; details: male mice, intraperitoneal; imipramine 32 mg/kg IP
Description: Procedure. Male mice (strain NLMN) weighing 25-35 g were used for testing. All animals were housed in a temperature (22-24° C.) and humidity (50-60%) controlled environment with free access to food and water on a 12-hour light-dark cycle. Test compounds were dissolved in 0.5% dimethylsulfoxide, 4% hydroxypropyl-β-cyclodextrin water to generate the appropriate dosing solution. Drugs were administered by intraperitoneal injection at a dose volume of 10 mL/kg. Testing was initiated 20-60 minutes after dosing. […] Mice were placed in a white plastic cylinder 20 cm high with a diameter of 21 cm containing 10 cm of water at 25±2° C. The mice were videotaped for 6 minutes, and the last 4 minutes of video were analyzed by a blinded observer off-line. The observer judged the animal to be immobile when it ceased all activity (struggling, swimming, jumping etc.) and floated passively atop the water. The amount of time each animal spent in the immobile state was recorded and used for statistical analysis of compound effect. Group differences were evaluated by student's t-test or one-way ANOVA followed by post-hoc Dunnett's test.

human NR1/NR2B, sequence (Q13224 27-1484, other chains not shown): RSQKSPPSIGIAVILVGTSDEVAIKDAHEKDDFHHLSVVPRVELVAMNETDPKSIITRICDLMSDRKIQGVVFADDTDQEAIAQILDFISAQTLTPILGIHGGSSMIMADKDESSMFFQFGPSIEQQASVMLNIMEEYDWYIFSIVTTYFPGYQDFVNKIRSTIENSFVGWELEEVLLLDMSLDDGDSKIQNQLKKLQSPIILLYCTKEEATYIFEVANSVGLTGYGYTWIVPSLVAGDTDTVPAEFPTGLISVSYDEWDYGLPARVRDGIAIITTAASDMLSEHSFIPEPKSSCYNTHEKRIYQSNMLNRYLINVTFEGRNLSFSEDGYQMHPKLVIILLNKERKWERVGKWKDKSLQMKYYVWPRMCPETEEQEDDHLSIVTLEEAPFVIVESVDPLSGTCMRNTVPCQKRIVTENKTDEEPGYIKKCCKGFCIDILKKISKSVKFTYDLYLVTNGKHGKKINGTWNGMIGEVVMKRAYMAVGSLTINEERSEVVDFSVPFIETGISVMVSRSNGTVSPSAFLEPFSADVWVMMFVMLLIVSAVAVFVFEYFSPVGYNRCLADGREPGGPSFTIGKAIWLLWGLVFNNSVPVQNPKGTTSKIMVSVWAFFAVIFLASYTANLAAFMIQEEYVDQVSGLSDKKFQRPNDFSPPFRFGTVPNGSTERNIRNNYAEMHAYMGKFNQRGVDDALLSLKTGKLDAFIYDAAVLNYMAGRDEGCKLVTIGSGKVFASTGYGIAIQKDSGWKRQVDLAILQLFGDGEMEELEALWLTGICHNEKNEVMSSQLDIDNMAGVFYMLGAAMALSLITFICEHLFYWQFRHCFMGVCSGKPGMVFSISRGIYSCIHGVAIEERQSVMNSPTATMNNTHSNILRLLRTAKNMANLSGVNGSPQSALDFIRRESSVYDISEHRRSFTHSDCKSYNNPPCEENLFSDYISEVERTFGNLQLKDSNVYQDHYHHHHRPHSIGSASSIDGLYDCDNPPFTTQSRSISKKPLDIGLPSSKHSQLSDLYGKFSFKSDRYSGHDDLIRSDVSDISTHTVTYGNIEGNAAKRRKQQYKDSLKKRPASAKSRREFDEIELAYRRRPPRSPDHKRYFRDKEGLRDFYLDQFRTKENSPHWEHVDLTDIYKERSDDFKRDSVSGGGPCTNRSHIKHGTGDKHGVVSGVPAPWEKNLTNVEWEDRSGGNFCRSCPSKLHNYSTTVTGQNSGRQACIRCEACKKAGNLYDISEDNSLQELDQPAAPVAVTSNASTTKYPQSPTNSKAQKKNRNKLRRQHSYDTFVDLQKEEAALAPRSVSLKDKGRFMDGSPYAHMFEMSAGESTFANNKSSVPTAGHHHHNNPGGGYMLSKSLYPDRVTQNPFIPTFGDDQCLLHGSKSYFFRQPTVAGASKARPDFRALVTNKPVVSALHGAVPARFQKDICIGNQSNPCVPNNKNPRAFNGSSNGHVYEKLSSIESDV
hERG channel, sequence (Q12809 whole entry): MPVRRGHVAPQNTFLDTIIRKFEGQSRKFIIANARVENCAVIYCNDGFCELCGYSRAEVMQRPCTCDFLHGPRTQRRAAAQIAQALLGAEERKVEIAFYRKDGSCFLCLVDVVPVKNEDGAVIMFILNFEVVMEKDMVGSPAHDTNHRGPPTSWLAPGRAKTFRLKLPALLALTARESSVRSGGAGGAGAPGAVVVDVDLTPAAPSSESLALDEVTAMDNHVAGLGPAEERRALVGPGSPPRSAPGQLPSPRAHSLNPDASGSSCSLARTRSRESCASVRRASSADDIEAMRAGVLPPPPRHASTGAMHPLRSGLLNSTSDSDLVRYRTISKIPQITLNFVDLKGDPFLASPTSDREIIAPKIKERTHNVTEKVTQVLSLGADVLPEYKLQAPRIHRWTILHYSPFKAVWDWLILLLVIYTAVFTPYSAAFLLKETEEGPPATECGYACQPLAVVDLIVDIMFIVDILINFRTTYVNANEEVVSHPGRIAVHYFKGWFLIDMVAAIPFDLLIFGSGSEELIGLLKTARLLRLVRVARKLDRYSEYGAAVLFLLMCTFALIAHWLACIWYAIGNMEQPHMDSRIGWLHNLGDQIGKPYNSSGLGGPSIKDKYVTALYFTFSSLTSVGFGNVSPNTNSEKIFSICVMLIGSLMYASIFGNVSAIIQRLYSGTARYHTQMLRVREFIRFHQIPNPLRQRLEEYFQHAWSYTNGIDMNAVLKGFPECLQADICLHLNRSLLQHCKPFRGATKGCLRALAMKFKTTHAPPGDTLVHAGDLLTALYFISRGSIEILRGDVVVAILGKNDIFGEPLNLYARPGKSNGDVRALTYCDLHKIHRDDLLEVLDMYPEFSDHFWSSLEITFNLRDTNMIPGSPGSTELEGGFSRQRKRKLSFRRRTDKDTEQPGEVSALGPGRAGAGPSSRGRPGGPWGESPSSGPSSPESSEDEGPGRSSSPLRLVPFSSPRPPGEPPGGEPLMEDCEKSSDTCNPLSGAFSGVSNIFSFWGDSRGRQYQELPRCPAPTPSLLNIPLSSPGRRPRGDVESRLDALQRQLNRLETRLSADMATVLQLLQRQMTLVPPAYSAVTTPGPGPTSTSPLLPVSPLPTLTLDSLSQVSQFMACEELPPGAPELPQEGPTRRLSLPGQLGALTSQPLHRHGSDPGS
human NR1/NR2A, sequence (Q12879 23-1464, other chains not shown): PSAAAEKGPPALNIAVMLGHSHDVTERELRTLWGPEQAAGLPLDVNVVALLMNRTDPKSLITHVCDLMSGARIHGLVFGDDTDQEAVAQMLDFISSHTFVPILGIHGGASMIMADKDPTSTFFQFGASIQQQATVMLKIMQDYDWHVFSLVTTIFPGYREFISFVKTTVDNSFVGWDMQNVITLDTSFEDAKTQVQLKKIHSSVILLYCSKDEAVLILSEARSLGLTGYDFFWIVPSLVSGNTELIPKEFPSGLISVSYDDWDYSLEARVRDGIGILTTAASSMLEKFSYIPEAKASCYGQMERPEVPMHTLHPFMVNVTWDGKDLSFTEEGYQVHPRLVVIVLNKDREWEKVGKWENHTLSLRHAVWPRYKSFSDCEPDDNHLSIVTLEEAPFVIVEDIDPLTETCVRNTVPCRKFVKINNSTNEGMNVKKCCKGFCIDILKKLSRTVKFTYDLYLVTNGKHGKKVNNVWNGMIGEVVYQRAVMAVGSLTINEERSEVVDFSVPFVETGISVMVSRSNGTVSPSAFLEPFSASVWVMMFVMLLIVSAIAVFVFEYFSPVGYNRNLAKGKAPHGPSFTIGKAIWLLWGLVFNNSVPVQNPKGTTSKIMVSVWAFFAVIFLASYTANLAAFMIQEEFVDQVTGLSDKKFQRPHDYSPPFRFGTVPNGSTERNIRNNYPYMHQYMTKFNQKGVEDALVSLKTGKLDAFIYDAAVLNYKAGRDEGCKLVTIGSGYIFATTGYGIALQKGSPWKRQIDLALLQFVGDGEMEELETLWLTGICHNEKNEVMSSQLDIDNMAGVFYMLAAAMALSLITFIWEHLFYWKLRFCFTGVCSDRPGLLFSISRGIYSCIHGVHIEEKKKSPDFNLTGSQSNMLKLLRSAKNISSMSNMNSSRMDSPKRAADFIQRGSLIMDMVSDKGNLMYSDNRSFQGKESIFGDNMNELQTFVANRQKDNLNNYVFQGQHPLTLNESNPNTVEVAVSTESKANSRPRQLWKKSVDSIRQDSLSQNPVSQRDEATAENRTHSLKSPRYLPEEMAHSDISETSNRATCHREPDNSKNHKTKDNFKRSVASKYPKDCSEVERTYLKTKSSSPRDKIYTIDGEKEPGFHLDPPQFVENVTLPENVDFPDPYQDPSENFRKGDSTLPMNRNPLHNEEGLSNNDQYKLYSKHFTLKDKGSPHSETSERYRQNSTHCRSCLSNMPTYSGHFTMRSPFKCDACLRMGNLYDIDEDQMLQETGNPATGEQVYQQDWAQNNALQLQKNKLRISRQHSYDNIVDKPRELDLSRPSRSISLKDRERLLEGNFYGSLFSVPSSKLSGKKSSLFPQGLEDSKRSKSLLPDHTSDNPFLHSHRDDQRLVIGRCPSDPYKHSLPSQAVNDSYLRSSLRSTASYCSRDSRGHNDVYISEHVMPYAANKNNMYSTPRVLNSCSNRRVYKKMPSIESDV

SMILES | IC50 (human NR1/NR2B) [nM] | IC50 (human NR1/NR2A) [nM] | hERG @ 10 μM (hERG channel) [%] | antidepressant activity (immobility time) (mice)
CN(c1ncnc2[nH]ncc12)C1CCN(CCc2ccc(C(F)(F)F)cc2)CC1(F)F (racemic) [C-1.33] | 103 | > 10000 | 59 | –
CN(C)CCCN1c2ccccc2CCc2ccccc21 [imipramine] | – | – | – | showed the expected antidepressant activity
